Laboratory results: ChEMBL document CHEMBL1201862, “PubChem BioAssay data set” (2004)
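48-hour exposure; five concentrations; linearly interpolated endpoints. GI50 marks 50% less growth.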 The source made the active and inactive calls. Cut-off read from the data, not from the text of the source: active = GI50 up to about 1.1 µM and inactive = higher.

Assays:
Test in all cases: NCI anticancer screen, dose series, 48 h
A498 = system: A498
CCRF-CEM = system: CCRF-CEM
HCT-116 = system: HCT-116
HOP-62 = system: HOP-62
K562 = system: K562
KM12 = system: KM12
LOX IMVI = system: LOX IMVI
MDA-MB-231 = system: MDA-MB-231
MOLT-4 = system: MOLT-4
NCI-H460 = system: NCI-H460
OVCAR-8 = system: OVCAR-8
PC-3 = system: PC-3
RPMI-8226 = system: RPMI-8226
SF-268 = system: SF-268
SK-MEL-5 = system: SK-MEL-5
SNB-19 = system: SNB-19
SR = system: SR
SW-620 = system: SW-620
U-251 = system: U-251

Compound | GI50 (A498) | GI50 (CCRF-CEM) | GI50 (HCT-116) | GI50 (HOP-62) | GI50 (K562) | GI50 (KM12) | GI50 (LOX IMVI) | GI50 (MDA-MB-231) | GI50 (MOLT-4) | GI50 (NCI-H460) | GI50 (OVCAR-8) | GI50 (PC-3) | GI50 (RPMI-8226) | GI50 (SF-268) | GI50 (SK-MEL-5) | GI50 (SNB-19) | GI50 (SR) | GI50 (SW-620) | GI50 (U-251)
O=C(CSc1nc2ccccc2c(=O)n1-c1ccccc1)N/N=C1\C(=O)Nc2ccc(Br)cc21 | 6.21 µM (inactive) | 5.62 µM (inactive) | 2.26 µM (inactive) | 2.59 µM (inactive) | 3.2 µM (inactive) | 2.44 µM (inactive) | 3.33 µM (inactive) | 1.65 µM (inactive) | 3.33 µM (inactive) | 4.92 µM (inactive) | 1.85 µM (inactive) | 1.84 µM (inactive) | 2.72 µM (inactive) | 5.48 µM (inactive) | 2.58 µM (inactive) | 3.03 µM (inactive) | 15.6 µM (inactive) | 3.37 µM (inactive) | 1.82 µM (inactive)
Cc1ccc(NC(=O)c2cccc(OP(=O)(O)Nc3ccc(C)cc3)c2)cc1 | > 100 µM (inactive) | > 100 µM (inactive) | > 100 µM (inactive) | > 100 µM (inactive) | > 100 µM (inactive) | > 100 µM (inactive) | > 100 µM (inactive) | 74.1 µM (inactive) | 64.6 µM (inactive) | > 100 µM (inactive) | > 100 µM (inactive) | > 100 µM (inactive) | > 100 µM (inactive) | > 100 µM (inactive) | > 100 µM (inactive) | > 100 µM (inactive) | 32.4 µM (inactive) | > 100 µM (inactive) | > 100 µM (inactive)
NC(=O)c1cc2ccccc2o/c1=N/c1ccccc1 | > 100 µM (inactive) | > 100 µM (inactive) | > 100 µM (inactive) | > 100 µM (inactive) | > 100 µM (inactive) | > 100 µM (inactive) | > 100 µM (inactive) | > 100 µM (inactive) | > 100 µM (inactive) | > 100 µM (inactive) | > 100 µM (inactive) | > 100 µM (inactive) | > 100 µM (inactive) | > 100 µM (inactive) | > 100 µM (inactive) | > 100 µM (inactive) | > 100 µM (inactive) | > 100 µM (inactive) | > 100 µM (inactive)
C=C1C(=O)O[C@@H]2C(=O)[C@@H](C)[C@@H]3C=CC(=O)[C@@]3(C)[C@@H](OC(=O)/C(C)=C\C)[C@H]12 [MULTISTATIN] | 1.69 µM (inactive) | 0.168 µM (active) | 0.238 µM (active) | 11.9 µM (inactive) | 0.293 µM (active) | 2.3 µM (inactive) | 0.555 µM (active) | 1.88 µM (inactive) | 0.41 µM (active) | 2.21 µM (inactive) | 1.73 µM (inactive) | 2.29 µM (inactive) | 0.327 µM (active) | 1.69 µM (inactive) | 1.68 µM (inactive) | 12.9 µM (inactive) | 0.223 µM (active) | 0.361 µM (active) | 2.43 µM (inactive)
COc1ccc(C2=CC(c3ccc4c(c3)OCO4)c3c(c4ccccc4oc3=O)O2)cc1OC (stereo not given) | 0.91 µM (active) | 2.49 µM (inactive) | 0.824 µM (active) | 1.44 µM (inactive) | 0.415 µM (active) | 1.76 µM (inactive) | 1.26 µM (inactive) | 4.02 µM (inactive) | 3.42 µM (inactive) | 1.09 µM (active) | 3.53 µM (inactive) | 2.42 µM (inactive) | 2.64 µM (inactive) | 5.07 µM (inactive) | 0.766 µM (active) | 2.53 µM (inactive) | 0.486 µM (active) | 0.933 µM (active) | 1.98 µM (inactive)
O=C(O)CN(CC(=O)O)Cc1cc2c(cc1O)Oc1cc(O)c(CN(CC(=O)O)CC(=O)O)cc1C21OC(=O)c2ccccc21 [OFTASCEINE] | > 100 µM (inactive) | > 100 µM (inactive) | > 100 µM (inactive) | > 100 µM (inactive) | > 100 µM (inactive) | > 100 µM (inactive) | > 100 µM (inactive) | > 100 µM (inactive) | > 100 µM (inactive) | > 10 µM (inactive) | > 100 µM (inactive) | > 100 µM (inactive) | > 100 µM (inactive) | > 100 µM (inactive) | > 100 µM (inactive) | > 100 µM (inactive) | > 100 µM (inactive) | > 100 µM (inactive) | > 100 µM (inactive)
CCOC1CN(C)/C(=N\c2cccc3ccccc23)S1 (stereo not given) | > 10 µM (inactive) | > 10 µM (inactive) | > 10 µM (inactive) | > 10 µM (inactive) | > 10 µM (inactive) | > 10 µM (inactive) | > 10 µM (inactive) | > 10 µM (inactive) | > 10 µM (inactive) | > 10 µM (inactive) | > 10 µM (inactive) | > 10 µM (inactive) | > 10 µM (inactive) | > 10 µM (inactive) | > 10 µM (inactive) | > 10 µM (inactive) | > 10 µM (inactive) | > 10 µM (inactive) | > 10 µM (inactive)
Cc1ccc(N2C3=C(CC4=C2CC(C)(C)CC4=O)C(=O)CC(C)(C)C3)cc1 | > 100 µM (inactive) | > 100 µM (inactive) | > 100 µM (inactive) | > 100 µM (inactive) | > 100 µM (inactive) | > 100 µM (inactive) | > 100 µM (inactive) | > 100 µM (inactive) | > 100 µM (inactive) | > 100 µM (inactive) | > 100 µM (inactive) | > 100 µM (inactive) | > 100 µM (inactive) | > 100 µM (inactive) | > 100 µM (inactive) | > 100 µM (inactive) | > 100 µM (inactive) | > 100 µM (inactive) | > 100 µM (inactive)
O=C(c1ccccc1)c1ccc2[nH]c(-c3c(Cl)c(Cl)c(Cl)c(Cl)c3C(=O)Nc3ccco3)nc2c1 | 20 µM (inactive) | 26.9 µM (inactive) | 34 µM (inactive) | 45.3 µM (inactive) | 16.6 µM (inactive) | 33 µM (inactive) | 38.1 µM (inactive) | 34.4 µM (inactive) | 18.6 µM (inactive) | 33.5 µM (inactive) | 60.3 µM (inactive) | 17.1 µM (inactive) | 19.8 µM (inactive) | 27 µM (inactive) | 28.4 µM (inactive) | 99.8 µM (inactive) | 12.6 µM (inactive) | 37.8 µM (inactive) | 42.5 µM (inactive)
O[C@H]1[C@H](O)[C@@H](O)[C@H](O)[C@@H](O)[C@H]1O [INOSITOL] | > 1000 µM (inactive) | 1.7 µM (inactive) | > 1000 µM (inactive) | > 1000 µM (inactive) | > 1000 µM (inactive) |  | > 1000 µM (inactive) | > 1000 µM (inactive) | 154 µM (inactive) | > 1000 µM (inactive) | > 1000 µM (inactive) | > 1000 µM (inactive) | > 1000 µM (inactive) | > 1000 µM (inactive) | > 1000 µM (inactive) | > 1000 µM (inactive) | 56.6 µM (inactive) | > 1000 µM (inactive) | > 1000 µM (inactive)
CCOC(=O)n1c(=O)nc2c3c(ncn21)Oc1c(c(-c2ccccc2)nn1-c1ccccc1)C3c1ccc(Cl)cc1 (stereo not given) | 1.79 µM (inactive) | 1.1 µM (active) | 1.5 µM (inactive) | 1.77 µM (inactive) | 1.08 µM (active) | 1.56 µM (inactive) | 1.46 µM (inactive) | 1.4 µM (inactive) |  | 1.68 µM (inactive) | 1.69 µM (inactive) | 1.73 µM (inactive) | 1.46 µM (inactive) | 1.58 µM (inactive) | 1.7 µM (inactive) | 1.61 µM (inactive) | 1.35 µM (inactive) | 1.71 µM (inactive) | 1.69 µM (inactive)
COc1ccc(C(=O)c2ccc(-n3c4ccccc4c4ccc5c(c43)C(=O)C=CC5=O)cc2)cc1 | 1.58 µM (inactive) | 0.367 µM (active) | 0.92 µM (active) | 12.5 µM (inactive) | 0.676 µM (active) | 3.68 µM (inactive) | 1.25 µM (inactive) | 1.94 µM (inactive) | 0.348 µM (active) | 4.61 µM (inactive) | 1.81 µM (inactive) | 1.5 µM (inactive) | 0.794 µM (active) | 0.647 µM (active) | 4.27 µM (inactive) | 4.19 µM (inactive) | 1.32 µM (inactive) | 1 µM (active) | 1.69 µM (inactive)
ClC1=C(Cl)C2OC3C=CCC3OC2C(Cl)=C1Cl (stereo not given) | > 100 µM (inactive) | 40.1 µM (inactive) | 32.9 µM (inactive) | > 100 µM (inactive) | 37.8 µM (inactive) | 40.6 µM (inactive) | 52 µM (inactive) | > 100 µM (inactive) | 35.3 µM (inactive) | 40 µM (inactive) | > 100 µM (inactive) | 39.7 µM (inactive) | 23 µM (inactive) | 73.5 µM (inactive) | 29.5 µM (inactive) |  | 35.3 µM (inactive) | 41.2 µM (inactive) | 52.8 µM (inactive)
Nc1ccc2c(c1)Nc1c3ccccc3nc3cccc-2c13 | 1.79 µM (inactive) | 3.85 µM (inactive) | 1.48 µM (inactive) | 1.3 µM (inactive) | 0.416 µM (active) | 1.32 µM (inactive) | 1.3 µM (inactive) | 1.35 µM (inactive) | 0.391 µM (active) | 1.02 µM (active) |  | 1.54 µM (inactive) | 1.84 µM (inactive) | 1.73 µM (inactive) | 1.75 µM (inactive) | 1.64 µM (inactive) | 0.281 µM (active) | 0.585 µM (active) | 1.53 µM (inactive)
COC(=O)c1c2c(cc3c1CC1(Cc4ccccc4C1)C3)CCC2 | 25.9 µM (inactive) | 17.2 µM (inactive) | 21.7 µM (inactive) | 28.2 µM (inactive) | 4.32 µM (inactive) | 13 µM (inactive) | 15.9 µM (inactive) | 14.8 µM (inactive) | 17.1 µM (inactive) | 30.5 µM (inactive) | 35.2 µM (inactive) | 13.8 µM (inactive) | 17.9 µM (inactive) | 36.6 µM (inactive) | 13.5 µM (inactive) |  | 16.5 µM (inactive) | 14.2 µM (inactive) | 20.9 µM (inactive)
